Where two headings read alike, the source gives them in different places. Starred links: 1 amine or outer side, 2 acyl side, 3 side chain; linkers in the order of their positions; H or OH if unused. Non-standard residues stand in square brackets, D forms with d. Groups on a side chain read outwards from the residue. *: point of attachment. C20 diacid = O=C(O)CCCCCCCCCCCCCCCCCCC(=O)*; C18 diacid = O=C(O)CCCCCCCCCCCCCCCCC(=O)*; γGlu = O=C(O)[C@H](CCC(=O)[*:2])N[*:1]; εLys = N[C@@H](CCCCN[*:1])C(=O)[*:2]; Aib = CC(C)(N)C(=O)O
Assays:
Type in all cases: cell-based
Conditions in all cases: CreLuc reporter gene assay
hGLP1R = target: T1, hGLP1R (Homo sapiens, UniProt P43220); experiment: hGLP1R CreLuc reporter gene assay in 0.5% and 100% plasma
T1 construct: expressed in transfected cells; host or cells: HEK-293 cells carrying a CRE-luciferase reporter gene
T1 sequence (P43220 24-463): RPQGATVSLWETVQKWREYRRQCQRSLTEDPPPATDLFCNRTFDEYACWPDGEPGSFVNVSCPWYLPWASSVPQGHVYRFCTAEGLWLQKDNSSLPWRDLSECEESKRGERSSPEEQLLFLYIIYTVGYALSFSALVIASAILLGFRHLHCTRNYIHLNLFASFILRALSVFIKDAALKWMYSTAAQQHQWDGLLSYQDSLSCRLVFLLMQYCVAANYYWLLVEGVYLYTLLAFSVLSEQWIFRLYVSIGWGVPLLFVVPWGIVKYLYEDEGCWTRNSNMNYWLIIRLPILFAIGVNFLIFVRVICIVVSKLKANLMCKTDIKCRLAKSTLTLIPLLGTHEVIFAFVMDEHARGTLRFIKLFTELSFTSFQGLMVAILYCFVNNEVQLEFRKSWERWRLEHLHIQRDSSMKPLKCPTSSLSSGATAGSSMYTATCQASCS
Method in brief: (§1)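 HEK-293 cells co-expressing GLP-1 or NPY2 receptor and CHO cells expressing GIP receptor, each carrying a CRE-driven luciferase reporter, were stimulated with peptides for 4 hours at 37 °C. Luminescence was read after Bright-Glo addition. EC50 came from 8-point, four-decade curves fitted by variable-slope non-linear regression.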

hGIPR = target: T2, hGIPR (Homo sapiens, UniProt P48546); experiment: hGIPR CreLuc reporter gene assay in 0.5% and 100% plasma
T2 construct: expressed in transfected cells; host or cells: CHO cells carrying a CRE-luciferase reporter gene
T2 sequence (P48546 22-466): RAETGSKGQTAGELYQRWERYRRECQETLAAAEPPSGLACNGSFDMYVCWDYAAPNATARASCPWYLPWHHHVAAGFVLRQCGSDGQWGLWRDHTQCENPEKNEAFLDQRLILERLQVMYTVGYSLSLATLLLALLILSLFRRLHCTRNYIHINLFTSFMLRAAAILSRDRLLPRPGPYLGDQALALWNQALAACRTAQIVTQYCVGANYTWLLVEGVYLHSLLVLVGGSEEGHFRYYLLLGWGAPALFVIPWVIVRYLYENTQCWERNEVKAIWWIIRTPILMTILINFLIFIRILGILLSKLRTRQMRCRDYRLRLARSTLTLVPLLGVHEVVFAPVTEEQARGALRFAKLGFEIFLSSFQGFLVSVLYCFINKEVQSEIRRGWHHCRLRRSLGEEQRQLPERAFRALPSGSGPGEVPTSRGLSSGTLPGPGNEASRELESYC
Method in brief: as §1

hNPY2R = target: T3, hNPY2R (Homo sapiens, UniProt P49146); experiment: hNPY2R CreLuc reporter gene assay in 0.5% and 100% plasma
T3 construct: expressed in transfected cells; host or cells: HEK-293 cells carrying a CRE-luciferase reporter gene
T3 sequence (P49146 1-381): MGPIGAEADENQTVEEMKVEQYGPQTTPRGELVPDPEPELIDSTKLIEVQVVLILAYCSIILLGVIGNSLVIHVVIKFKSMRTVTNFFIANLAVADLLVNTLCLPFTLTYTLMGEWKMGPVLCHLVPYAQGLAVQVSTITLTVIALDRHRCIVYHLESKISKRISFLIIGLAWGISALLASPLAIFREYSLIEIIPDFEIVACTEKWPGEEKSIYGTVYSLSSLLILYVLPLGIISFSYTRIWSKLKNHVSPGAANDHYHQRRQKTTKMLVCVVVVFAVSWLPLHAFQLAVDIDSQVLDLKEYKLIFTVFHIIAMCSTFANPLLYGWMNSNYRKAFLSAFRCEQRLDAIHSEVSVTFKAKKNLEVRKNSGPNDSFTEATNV
Method in brief: as §1

[1] = 0.5% human plasma, read-out: hGLP1R 0.5% hP
[2] = 0.5% human plasma, read-out: hGIPR 0.5% hP
[3] = 100% human plasma, read-out: hGIPR 100% hP
[4] = 0.5% human plasma, read-out: hNPY2R 0.5% hP
[5] = 100% human plasma, read-out: hNPY2R 100% hP

Compound | EC50 (hGLP1R; [1]) | EC50 (hGLP1R; 100% human plasma, read-out: hGLP1R 100% hP) | EC50 (hGIPR; [2]) | EC50 (hGIPR; [3]) | EC50 (hNPY2R; [4]) | EC50 (hNPY2R; [5]) | EC50 (hGLP1R; hGLP1R 0.5% hP, 0.5% human plasma) | EC50 (hGIPR; hGIPR 0.5% hP, 0.5% human plasma) | EC50 (hNPY2R; hNPY2R 100% hP, 100% human plasma)
CC[C@H](C)[C@H](NC(=O)[C@H](CC(C)C)NC(=O)[C@H](Cc1c[nH]c2ccccc12)NC(=O)[C@H](CCC(=O)O)NC(=O)[C@@H](NC(=O)[C@H](Cc1ccccc1)NC(=O)[C@H](C)NC(=O)C(C)(C)NC(=O)[C@H](CCC(N)=O)NC(=O)[C@H](C)NC(=O)[C@H](CCC(N)=O)NC(=O)[C@H](CCCCN)NC(=O)[C@H](CCC(=O)O)NC(=O)[C@H](CC(C)C)NC(=O)C(C)(C)NC(=O)[C@@H](NC(=O)[C@H](CO)NC(=O)[C@H](Cc1ccc(O)cc1)NC(=O)[C@H](CC(=O)O)NC(=O)[C@H](CO)NC(=O)[C@@H](NC(=O)[C@H](Cc1ccccc1)NC(=O)[C@@H](NC(=O)CNC(=O)[C@H](CCC(=O)O)NC(=O)C(C)(C)NC(=O)[C@@H](N)Cc1ccc(O)cc1)[C@@H](C)O)[C@@H](C)O)[C@@H](C)CC)C(C)C)C(=O)N[C@@H](CCCCNC(=O)[C@@H](N)CCCCNC(=O)CC[C@H](NC(=O)CC[C@H](NC(=O)CC[C@H](NC(=O)CC[C@H](NC(=O)CC[C@H](NC(=O)CC[C@H](NC(=O)CCCCCCCCCCCCCCCCCCC(=O)O)C(=O)O)C(=O)O)C(=O)O)C(=O)O)C(=O)O)C(=O)O)C(=O)NCC(=O)NCC(=O)N1CCC[C@H]1C(=O)N[C@@H](CO)C(=O)N[C@@H](CO)C(=O)NCC(=O)N[C@@H](C)C(=O)N[C@@H](CO)C(=O)N[C@H](C(=O)N[C@@H](CCCNC(=N)N)C(=O)N[C@@H](Cc1c[nH]cn1)C(=O)N[C@@H](Cc1ccc(O)cc1)C(=O)N[C@@H](Cc1ccc(O)cc1)C(=O)N[C@@H](CC(N)=O)C(=O)N[C@@H](Cc1c[nH]c2ccccc12)C(=O)N[C@@H](CC(C)C)C(=O)N[C@H](C(=O)N[C@@H](CCCNC(=N)N)C(=O)N[C@@H](CCC(N)=O)C(=O)N[C@@H](CCCNC(=N)N)C(=O)N[C@@H](Cc1ccc(O)cc1)C(N)=O)[C@@H](C)O)C(C)(C)C [Compound 103, Y-Aib-E-G-T-F-T-S-D-Y-S-I-Aib-L-E-K-Q-A-Q-Aib-A-F-V-E-W-L-I-K(1,3)-G-G-P-S-S-G-A-S-Tle-R-H-Y-Y-N-W-L-T-R-Q-R-Y-NH2.C20DA-gGlu-gGlu-gGlu-gGlu-gGlu-gGlu-eLys(1,2)] |  |  |  |  |  |  | 0.13 nM | 0.26 nM | 50.7 nM
H-Y[Aib]EGTFTSDYSI[Aib]LEKQAQ[Aib]AFVEWLIK([εLys-γGlu-γGlu-γGlu-γGlu-γGlu-γGlu-C20 diacid])GGPSYYVSLRHYYNWLTRQRY-NH2 [Compound 80, Y-Aib-E-G-T-F-T-S-D-Y-S-I-Aib-L-E-K-Q-A-Q-Aib-A-F-V-E-W-L-I-K(1,3)-GGPSYYVSLRHYYNWLTRQRY-NH2.C20DA-gGlu-gGlu-gGlu-gGlu-gGlu-gGlu-eLys(1,2)] | 1.6 nM |  | 0.79 nM |  | 12.8 nM | 54.8 nM |  |  | 
H-Y[Aib]EGTFTSDYSI[Aib]LEKQAQ[Aib]AFVEWLIK([εLys-γGlu-γGlu-γGlu-γGlu-γGlu-γGlu-C20 diacid])GGPSYGASLRHYYNWLTRQRY-NH2 [Compound 232, Y-Aib-E-G-T-F-T-S-D-Y-S-I-Aib-L-E-K-Q-A-Q-Aib-A-F-V-E-W-L-I-K(1,3)-GGPSYGASLRHYYNWLTRQRY-NH2.C20DA-gGlu-gGlu-gGlu-gGlu-gGlu-gGlu-eLys(1,2)] | 0.21 nM |  | 0.19 nM | 1.64 nM | 15.3 nM | 36.8 nM |  |  | 
H-Y[Aib]EGTFTSDYSI[Aib]LEKQAQ[Aib]AFVEWLIK([Glu-Glu-Glu-Glu-C18 diacid])GGPSEGASLRHYYNWLTRQRY-NH2 [Compound 291, Y-Aib-E-G-T-F-T-S-D-Y-S-I-Aib-L-E-K-Q-A-Q-Aib-A-F-V-E-W-L-I-K(1,3)-GGPSEGASLRHYYNWLTRQRY-NH2.C18DA-E-E-E-E(1,2)] | 0.1 nM |  | 0.18 nM | 0.7 nM | 14.3 nM |  |  |  | 
H-Y[Aib]EGTFTSDYSI[Aib]LEKQAQ[Aib]EFVEWLIK([γGlu-γGlu-γGlu-γGlu-γGlu-γGlu-C20 diacid])GGPSSGASLRHYYNWLTRQRY-NH2 [Compound 198, Y-Aib-E-G-T-F-T-S-D-Y-S-I-Aib-L-E-K-Q-A-Q-Aib-E-F-V-E-W-L-I-K(1,3)-GGPSSGASLRHYYNWLTRQRY-NH2.C20DA-gGlu-gGlu-gGlu-gGlu-gGlu-glu(1,2)] | 0.47 nM |  | 0.26 nM |  | 13.1 nM |  |  |  | 

More lines, main results first:

EC50 (hGLP1R; [1]) | EC50 (hGLP1R; 100% human plasma, read-out: hGLP1R 100% hP) | EC50 (hGIPR; [2]) | EC50 (hGIPR; [3]) | EC50 (hNPY2R; [4]) | EC50 (hNPY2R; [5]) | Compound | EC50 (hGLP1R; hGLP1R 0.5% hP, 0.5% human plasma) | EC50 (hGIPR; hGIPR 0.5% hP, 0.5% human plasma) | EC50 (hNPY2R; hNPY2R 100% hP, 100% human plasma)
0.21 nM | 10.4 nM | 0.26 nM | 1.81 nM | 12.9 nM |  | H-Y[Aib]EGTFTSDYSI[Aib]LEKQAQ[Aib]EFVQWLIK([γGlu-γGlu-γGlu-γGlu-C18 diacid])GGPSEGASLRHYYNWLTRQRY-NH2 [Compound 202, Y-Aib-E-G-T-F-T-S-D-Y-S-I-Aib-L-E-K-Q-A-Q-Aib-E-F-V-Q-W-L-I-K(1,3)-GGPSEGASLRHYYNWLTRQRY-NH2.C18DA-gGlu-gGlu-gGlu-gGlu(1,2)] |  |  | 
0.18 nM |  | 0.65 nM |  | 23.8 nM |  | H-Y[Aib]EGTFTSDYSI[Aib]LESQAQ[Aib]AFVEWLIK([εLys-γGlu-γGlu-γGlu-γGlu-γGlu-γGlu-C20 diacid])GGPSSGASLRHYYNWLTRQRY-NH2 [Compound 121, Y-Aib-E-G-T-F-T-S-D-Y-S-I-Aib-L-E-S-Q-A-Q-Aib-A-F-V-E-W-L-I-K(1,3)-GGPSSGASLRHYYNWLTRQRY-NH2.C20DA-gGlu-gGlu-gGlu-gGlu-gGlu-gGlu-eLys(1,2)] |  |  | 
0.29 nM |  | 0.68 nM |  | 30.4 nM | 197 nM | CC[C@H](C)[C@H](NC(=O)[C@H](CC(C)C)NC(=O)[C@H](Cc1c[nH]c2ccccc12)NC(=O)[C@H](CCC(N)=O)NC(=O)[C@@H](NC(=O)[C@H](Cc1ccccc1)NC(=O)[C@H](CCC(=O)O)NC(=O)C(C)(C)NC(=O)[C@H](CCC(N)=O)NC(=O)[C@H](C)NC(=O)[C@H](CCC(N)=O)NC(=O)[C@H](CCCCN)NC(=O)[C@H](CCC(=O)O)NC(=O)[C@H](CC(C)C)NC(=O)C(C)(C)NC(=O)[C@@H](NC(=O)[C@H](CO)NC(=O)[C@H](Cc1ccc(O)cc1)NC(=O)[C@H](CC(=O)O)NC(=O)[C@H](CO)NC(=O)[C@@H](NC(=O)[C@H](Cc1ccccc1)NC(=O)[C@@H](NC(=O)CNC(=O)[C@H](CCC(=O)O)NC(=O)C(C)(C)NC(=O)[C@@H](N)Cc1ccc(O)cc1)[C@@H](C)O)[C@@H](C)O)[C@@H](C)CC)C(C)C)C(=O)N[C@@H](CCCCNC(=O)[C@H](CCC(=O)O)NC(=O)[C@H](CCC(=O)O)NC(=O)[C@H](CCC(=O)O)NC(=O)[C@H](CCC(=O)O)NC(=O)[C@H](CCC(=O)O)NC(=O)CCCCCCCCCCCCCCCCC(=O)O)C(=O)NCC(=O)NCC(=O)N1CCC[C@H]1C(=O)N[C@@H](CO)C(=O)N[C@@H](CCC(=O)O)C(=O)NCC(=O)N[C@@H](C)C(=O)N[C@@H](CO)C(=O)N[C@@H](CC(C)C)C(=O)N[C@@H](CCCNC(=N)N)C(=O)N[C@@H](Cc1c[nH]cn1)C(=O)N[C@@H](Cc1ccc(O)cc1)C(=O)N[C@@H](Cc1ccc(O)cc1)C(=O)N[C@@H](CC(N)=O)C(=O)N[C@@H](Cc1c[nH]c2ccccc12)C(=O)N[C@@H](CC(C)C)C(=O)N[C@H](C(=O)N[C@@H](CCCNC(=N)N)C(=O)N[C@@H](CCC(N)=O)C(=O)N[C@@H](CCCNC(=N)N)C(=O)N[C@@H](Cc1ccc(O)cc1)C(N)=O)[C@@H](C)O [Compound 176, Y-Aib-E-G-T-F-T-S-D-Y-S-I-Aib-L-E-K-Q-A-Q-Aib-E-F-V-Q-W-L-I-K(1,3)-GGPSEGASLRHYYNWLTRQRY-NH2.C18DA-E-E-E-E-E(1,2)] |  |  | 

Source: patent US20240247080A1, “GLP1/GIP/NPY2 RECEPTOR TRIPLE AGONISTS” (Boehringer Ingelheim International GmbH, priority 2022, published 2024)
